These results are taken from patent US20110014285A1, “N-ACETYL CYSTEINE COMPOSITIONS AND METHODS TO IMPROVE THE THERAPEUTIC EFFICACY OF ACETAMINOPHEN” (priority 2009, published 2011).

For series [1] the following is noted: NAC thiol/disulfide pair; Noszal et al. (2000); cited from earlier work.
In series [2] the test system is fever. The series can be described thus: Control of fever refractory to acetaminophen in a pediatric patient. It is filed as in vivo, human. As to conditions: standard maximum daily dose of acetaminophen. An excerpt:
A pediatric patient receives a standard maximum daily dose of acetaminophen to control a fever, but the acetaminophen is ineffective. The patient receives the same standard maximum daily dose of acetaminophen in the form of an acetaminophen-N-acetylcysteine composition.

For series [3] the following is noted: in vivo; cited from earlier work.
Series [4] concerns dogs. The conditions noted are these: cited from earlier work.
The test system of series [5] is humans. As to conditions: cited from earlier work.
In series [6] the test system is felines. As to conditions: felines (cat family); cited from earlier work.
For series [7] the following is noted: effects counter to those reported for NAC; Samstrand et al (1999); cited from earlier work.

Take `CC(=O)N[C@@H](CS)C(=O)O` [NAC, N-acetylcysteine]: the half-cell potential entry in series [1] is “about +63 mV”.
Take `CC(=O)Nc1ccc(O)cc1` [acetaminophen, N-acetyl-para-aminophenol]: the control of fever entry in series [2] is listed as “ineffective”. Further, the binding to protein result in series [3] was “only slightly”. Further, in series [3], the volume of distribution is 0.9 to 1.0 L/kg. For the same compound, the “dose at which toxicity is documented” value in series [4] is given as over 40 mg/kg; in series [5], over 140 mg/kg. In addition, the “dose at which toxicity and death were demonstrated” value in series [6] is 5 to 10 mg/kg.
In the case of `CC(=O)N[C@@H](CSSC[C@H](NC(C)=O)C(=O)O)C(=O)O` [oxidized form of NAC], in series [7], the “bioactive dose relative to NAC” value is 10-100 fold less than NAC.
